Test results taken from patent publication US20240173432A1, “Compositions and Methods for Treatment of Myotonic Dystrophy Type 1 with CRISPR/SluCas9” (Vertex Pharmaceuticals Incorporated, priority 2021, published 2024).

Assays:
[1] = test system: CUG foci in primary DM1 patient myoblasts; experiment: Single-cut screening: FISH staining of CUG RNA foci; assay type: cell-based, human; conditions: single sgRNA, primary DM1 patient myoblasts; for % of CUG foci free nuclei (DNA-PKi): DNA-PKi treated
Procedure, shortened: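 CD56-purified primary DM1 patient myoblasts nucleofected with SluCas9:sgRNA RNP (30:90 pmol, single-cut), then DMSO or 3 μM DNA-PK inhibitor for 48 h. At 72 h post-nucleofection, cells fixed and stained for CUG foci with Cy3-PNA(CAG)5 probe (1 ng/μL, 80 °C), co-stained for MBNL1 and Hoechst, imaged by high-content confocal microscopy.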

[2] = test system: 3′ UTR of the human DMPK gene; experiment: Single-cut screening: indel editing efficiency by Sanger sequencing and ICE analysis in primary DM1 patient myoblasts; assay type: cell-based; conditions: vehicle-treated samples; for Indel efficiency: single SluCas9 sgRNA RNP in primary DM1 patient myoblasts, Sanger sequencing and ICE analysis
Procedure, shortened: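 Indels were estimated by ICE from Sanger chromatograms of PCR amplicons covering the DMPK 3′ UTR wild-type allele, using only vehicle-treated samples; sgRNAs with R2<0.9 are flagged. Samples came from primary DM1 patient myoblasts (2 × 10^5) harvested 72 h after nucleofection with 30 pmol SluCas9 and 90 pmol single sgRNA RNP.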

[3] = test system: CAG foci in primary DM1 patient myoblasts; experiment: Single-cut screening: CAG foci staining; assay type: cell-based, human; conditions: single sgRNA; for % of CAG foci positive nuclei (DNA-PKi): DNA-PKi treated
Procedure, shortened: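 Primary DM1 patient myoblasts were PFA-fixed and hybridized with […] (1 ng/μL, 15 min at 80° C) in 30% formamide/2×SSC, followed by anti-MBNL1 immunostaining and Hoechst counterstain. CAG RNA foci were quantified by high-content confocal imaging after single-cut SuCas9 sgRNA editing.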

Substance	% of CUG foci free nuclei (DNA-PKi) [1] [%]	% of CUG foci free nuclei (Vehicle) [1] [%]	Indel efficiency [2] [%]	% of CAG foci positive nuclei (DNA-PKi) [3] [%]	% of CAG foci positive nuclei (Vehicle) [3] [%]	indel efficiency (Sanger sequencing and ICE analysis) ([2]; single-cut, SluCas9 RNP, 72 hrs post nucleofection, wild-type allele)
GATCACAGACCATTTCTTTCTT (guide RNA; chemistry not fully specified) [SluD01]	17.29	18.45	0	1.34	0.79	–
GATGGAGGGCCTTTTATTCGCG (guide RNA; chemistry not fully specified) [SluD98]	11.71	11.21	0	1.47	0.84	–
GCACTTTGCGAACCAACGATAG (guide RNA; chemistry not fully specified) [SluD28]	31.88	11.31	48	1.29	1.23	–
GCCCAGCTCCAGTCCTGTGATC (guide RNA; chemistry not fully specified) [SluU28]	36.78	10.14	17	1.64	1.15	–
GCCCCAGCCGGCTCCGCCCGCT (guide RNA; chemistry not fully specified) [SluD55]	34.69	15.71	41	2.92	3.01	–
GCCCCCTAGCggccggggaggg (guide RNA; as printed in the source, key not given here) [SluU42]	42.7	7.05	15	1.62	0.86	–
GCCCCGGAGTCGAAGACAGTTC (guide RNA; chemistry not fully specified) [SluU05]	61.16	26.37	65	1.64	1.53	–
GCCCCGGGCACTCAGTCTTCCA (guide RNA; chemistry not fully specified) [SluU13]	43.12	17.02	27	1.07	1.11	–
GCCCGCCCCCTAGCggccgggg (guide RNA; as printed in the source, key not given here) [SluU40]	25.77	15.29	3	2.01	1	–
GCCCGGATCACAGGACTGGAGC (guide RNA; chemistry not fully specified) [SluU30]	46.16	26.92	48	2.14	0.67	–
GCCTGTCAGCGAGTCGGAGGAC (guide RNA; chemistry not fully specified) [SluD66]	30.48	13.03	28	1.94	1.41	–
GCGCGATCTCTGCCTGCTTACT (guide RNA; chemistry not fully specified) [SluD37]	31.69	6.89	25	2.15	1.76	–
GCGCGGCTTCTGTGCCGTGCCC (guide RNA; chemistry not fully specified) [SluU15]	31.71	7.97	4	1.28	0.75	–
GCGGTTGTGAACTGGCAGGCGG (guide RNA; chemistry not fully specified) [SluU18]	48.57	9.74	14	1.24	1.1	–
GCTAGGGGGCGGGCCCGGATCA (guide RNA; chemistry not fully specified) [SluU34]	63.08	19.95	53	1.03	0.78	–
GCTCGGAGCGGTTGTGAACTGG (listed as DNA, chemistry not fully specified) [SluU21]	54.83	23.65	80	0.66	0.68	high editing IN4DEL efficiency
GCTTTTGCCAAACCCGCTTTTT (guide RNA; chemistry not fully specified) [SluD40]	23.44	8.9	5	1.46	1.68	–
GGCCCGCCCCCTAGCggccggg (guide RNA; as printed in the source, key not given here) [SluU38]	32.86	7.24	2	1.56	0.68	–
GGCCCGGATCACAGGACTGGAG (guide RNA; chemistry not fully specified) [SluU31]	40.74	14.2	29	1.62	0.94	–
GGCCTTTTATTCGCGAGGGTCG (guide RNA; chemistry not fully specified) [SluD94]	27.23	18.18	30	1.32	1	–
GGCGCGATCTCTGCCTGCTTAC (guide RNA; chemistry not fully specified) [SluD36]	29.02	13.52	52	2.32	3.24	–
GGCGCGGCTTCTGTGCCGTGCC (guide RNA; chemistry not fully specified) [SluU16]	27.5	10.73	7	1.73	1.28	–
GGGCCTTTTATTCGCGAGGGTC (guide RNA; chemistry not fully specified) [SluD95]	27.23	21.81	28	2.19	1.3	–
